Results on 21 molecules are retold here after US8975417B2, “Pyrazolopyrrolidine derivatives and their use in the treatment of disease” (Novartis AG, priority 2013, dated 2015).

For one assay, the target named is His-Brd2(60-472) (Homo sapiens (Human), UniProt P25440). Briefly: TR-FRET in-vitro binding assay for BRD2. The following applies: biochemical. The essentials: (§1)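 Eight-point dilution series tested against in-house His-BRD2(60-472), BRD3(20-477) or BRD4(44-477) (45 nM in dispensed solution) binding acetyl-histone H4 (AcK5,8,12,16; 60 nM in dispensed solution). Incubation 35 min at 30 °C, pH 7.5 HEPES buffer; detection by TR-FRET using Eu-anti-His6 and streptavidin-allophycocyanin.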
Sequence of His-Brd2(60-472) (P25440 60-472): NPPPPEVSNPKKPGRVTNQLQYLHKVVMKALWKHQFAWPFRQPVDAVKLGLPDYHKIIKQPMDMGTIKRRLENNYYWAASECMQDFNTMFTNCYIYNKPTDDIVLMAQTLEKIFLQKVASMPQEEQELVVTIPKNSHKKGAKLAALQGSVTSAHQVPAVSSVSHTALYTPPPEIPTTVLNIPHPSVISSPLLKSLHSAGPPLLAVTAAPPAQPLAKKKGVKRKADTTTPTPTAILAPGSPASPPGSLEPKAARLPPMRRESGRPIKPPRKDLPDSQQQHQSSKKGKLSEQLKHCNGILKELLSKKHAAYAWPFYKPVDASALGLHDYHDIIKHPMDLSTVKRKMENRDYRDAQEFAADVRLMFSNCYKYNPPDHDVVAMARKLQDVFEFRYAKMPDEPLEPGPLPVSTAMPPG
(In TR-FRET formats the signal depends on donor and acceptor labels being close together.)

In another assay the target is His-Brd3(20-477) (Homo sapiens (Human), UniProt Q15059). The assay can be described thus: TR-FRET in-vitro binding assay for BRD3. The following applies: biochemical. The essentials: as §1
Sequence of His-Brd3(20-477) (Q15059 20-477): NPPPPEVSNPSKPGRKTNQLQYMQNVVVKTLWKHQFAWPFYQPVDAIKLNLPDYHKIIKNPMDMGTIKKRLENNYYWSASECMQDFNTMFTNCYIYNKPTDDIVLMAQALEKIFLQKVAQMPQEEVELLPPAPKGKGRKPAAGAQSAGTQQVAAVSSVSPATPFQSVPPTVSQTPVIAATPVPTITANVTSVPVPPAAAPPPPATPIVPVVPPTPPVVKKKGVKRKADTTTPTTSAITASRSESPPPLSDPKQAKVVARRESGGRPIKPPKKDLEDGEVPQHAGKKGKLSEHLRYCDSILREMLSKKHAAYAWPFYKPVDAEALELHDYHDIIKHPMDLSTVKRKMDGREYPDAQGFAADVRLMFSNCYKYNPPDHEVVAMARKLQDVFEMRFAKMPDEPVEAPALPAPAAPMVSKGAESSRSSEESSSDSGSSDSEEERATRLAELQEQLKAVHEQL
The target in assay [1] is nuclear BRD4-NUT foci in HCC2494 NUT midline carcinoma cells (Homo sapiens (Human), UniProt O60885+Q86Y26). The assay can be described thus: Nut-foci formation assay. Format: cell-based. Conditions: 24 hours, read-out: HCS Brd4-NUT IC50. The essentials: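 Read-out is number and intensity of nuclear NUT foci by immunofluorescence imaging, relative to 0.1% DMSO set as 100. Compounds were tested as 3-fold series starting at 10 μM on HCC2494 NUT midline carcinoma cells for 24 h. Four-parameter fitting gave IC50.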

In general, IC50 refers to the midpoint of a concentration-inhibition curve. Turning to `Cc1nn(C2COC2)c2c1C(c1ccc(Cl)cc1)N(c1cc(C)c3nnc(C)n3c1)C2=O` (stereo not drawn) [Example 137, 4-(4-chlorophenyl)-5-(3,8-dimethyl-[1,2,4]triazolo[4,3-a]pyridin-6-yl)-3-methyl-1-(oxetan-3-yl)-4,5-dihydropyrrolo[3,4-c]pyrazol-6(1H)-one], the IC50 on His-Brd2(60-472) stood at 92 nM; on His-Brd3(20-477), 100 nM; in assay [1], 57.7 nM.

For `Cc1nn(-c2ccnn2C)c2c1[C@@H](c1ccc(Cl)cc1)N(c1cc(C)c(=O)n(C)c1)C2=O` [Example 120, (R)-4-(4-chlorophenyl)-5-(1,5-dimethyl-6-oxo-1,6-dihydropyridin-3-yl)-3-methyl-1-(1-methyl-1H-pyrazol-5-yl)-4,5-dihydropyrrolo[3,4-c]pyrazol-6(1H)-one], the values for the IC50 (on His-Brd2(60-472); on His-Brd3(20-477); in assay [1]) were 78 nM, 83 nM and 65.4 nM, respectively.

On to `Cc1ncccc1-n1nc2c(c1C)C(c1ccc(Cl)cc1)N(c1cc(C)c(=O)n(C)c1)C2=O` (stereo not drawn) [Example 81, 4-(4-chlorophenyl)-5-(1,5-dimethyl-6-oxo-1,6-dihydropyridin-3-yl)-3-methyl-2-(2-methylpyridin-3-yl)-4,5-dihydropyrrolo[3,4-c]pyrazol-6(2H)-one], for which the IC50 is 120 nM at His-Brd2(60-472), 97 nM at His-Brd3(20-477) and 74.3 nM in assay [1].

In the case of `Cc1nn(-c2ccnn2C)c2c1C(c1ccc(Cl)cc1)N(c1cc(C)c(=O)n(C)c1)C2=O` (racemic) [Example 74, 4-(4-chlorophenyl)-5-(1,5-dimethyl-6-oxo-1,6-dihydropyridin-3-yl)-3-methyl-1-(1-methyl-1H-pyrazol-5-yl)-4,5-dihydropyrrolo[3,4-c]pyrazol-6(1H)-one], the IC50 at His-Brd2(60-472) stood at 71 nM; at His-Brd3(20-477), 91 nM; in assay [1], 44.2 nM.

In the case of `Cc1nn(C2CC2)c2c1C(c1ccc(Cl)cc1)N(c1cc(N(C)C(=O)OC(C)(C)C)c3nnc(C)n3n1)C2=O` (stereo not drawn) [Example 112, tert-butyl (6-(4-(4-chlorophenyl)-1-cyclopropyl-3-methyl-6-oxopyrrolo[3,4-c]pyrazol-5(1H,4H,6H)-yl)-3-methyl-[1,2,4]triazolo[4,3-b]pyridazin-8-yl)(methyl)carbamate], the IC50 is more than 37000 nM at His-Brd2(60-472), more than 37000 nM on His-Brd3(20-477) and 3350 nM in assay [1].

For the molecule `Cc1nn(C2CNC2)c2c1C(c1ccc(Cl)cc1)N(c1cc(C)c3nnc(C)n3c1)C2=O` (stereo not drawn) [Example 151, 1-(azetidin-3-yl)-4-(4-chlorophenyl)-5-(3,8-dimethyl-[1,2,4]triazolo[4,3-a]pyridin-6-yl)-3-methyl-4,5-dihydropyrrolo[3,4-c]pyrazol-6(1H)-one], the figures for the IC50 (at His-Brd2(60-472); at His-Brd3(20-477); in assay [1]) were 150 nM, 160 nM and 554 nM, respectively.

Turning to `Cc1nn(C2COC2)c2c1C(c1ccc(Cl)cc1)N(c1cc(C)c(=O)n(C)c1)C2=O` (stereo not drawn) [Example 135, 4-(4-chlorophenyl)-5-(1,5-dimethyl-6-oxo-1,6-dihydropyridin-3-yl)-3-methyl-1-(oxetan-3-yl)-4,5-dihydropyrrolo[3,4-c]pyrazol-6(1H)-one], the figures for the IC50 (at His-Brd2(60-472); on His-Brd3(20-477); in assay [1]) were 150 nM, 130 nM and 93.4 nM, respectively.

With `COc1ncccc1-n1nc(C)c2c1C(=O)N(c1cc(C)c3nnc(C)n3n1)C2c1ccc(Cl)cc1` (stereo not drawn) [Example 111, 4-(4-chlorophenyl)-5-(3,8-dimethyl-[1,2,4]triazolo[4,3-b]pyridazin-6-yl)-1-(2-methoxypyridin-3-yl)-3-methyl-4,5-dihydropyrrolo[3,4-c]pyrazol-6(1H)-one], the IC50 on His-Brd2(60-472) came out at 32 nM; on His-Brd3(20-477), 24 nM; in assay [1], 34.3 nM.

On to `Cc1nn(-c2cncn2C)c2c1C(c1ccc(Cl)cc1)N(c1cc(C)c(=O)n(C)c1)C2=O` (stereo not drawn) [Example 83, 4-(4-chlorophenyl)-5-(1,5-dimethyl-6-oxo-1,6-dihydropyridin-3-yl)-3-methyl-1-(1-methyl-1H-imidazol-5-yl)-4,5-dihydropyrrolo[3,4-c]pyrazol-6(1H)-one], for which the IC50 at His-Brd2(60-472) turned out to be 120 nM; on His-Brd3(20-477) it was 97 nM; in assay [1], 96.8 nM.

For `CC(=O)N1CC(n2nc(C)c3c2C(=O)N(c2cc(C)c4nnc(C)n4c2)C3c2ccc(Cl)cc2)C1` (stereo not drawn) [Example 154, 1-(1-acetylazetidin-3-yl)-4-(4-chlorophenyl)-5-(3,8-dimethyl-[1,2,4]triazolo[4,3-a]pyridin-6-yl)-3-methyl-4,5-dihydropyrrolo[3,4-c]pyrazol-6(1H)-one], the IC50 worked out at 120 nM on His-Brd2(60-472), 120 nM at His-Brd3(20-477) and 208 nM in assay [1].

For the molecule `Cn1cc(N2C(=O)c3c(c(C(F)(F)F)nn3C3CC3)C2c2ccc(Cl)cc2)cc(Cl)c1=O` (stereo not drawn) [Example 44, 5-(5-chloro-1-methyl-6-oxo-1,6-dihydropyridin-3-yl)-4-(4-chlorophenyl)-1-cyclopropyl-3-(trifluoromethyl)-4,5-dihydropyrrolo[3,4-c]pyrazol-6(1H)-one], the IC50 at His-Brd2(60-472) is 170 nM; on His-Brd3(20-477) it was 280 nM; in assay [1] it was 164 nM.

In the case of `Cc1nn(C2CC2)c2c1C(c1ccc(OC(F)(F)F)cc1)N(c1cc(C)c(=O)n(C)c1)C2=O` (stereo not drawn) [Example 95, 1-cyclopropyl-5-(1,5-dimethyl-6-oxo-1,6-dihydropyridin-3-yl)-3-methyl-4-(4-(trifluoromethoxy)phenyl)-4,5-dihydropyrrolo[3,4-c]pyrazol-6(1H)-one], the figures for the IC50 (on His-Brd2(60-472); on His-Brd3(20-477); in assay [1]) were 63 nM, 73 nM and 191 nM, respectively.

For the molecule `CCOC(=O)N1CC(n2nc(C)c3c2C(=O)N(c2cc(C)c(=O)n(C)c2)C3c2ccc(Cl)cc2)C1` (stereo not drawn) [Example 155, Ethyl 3-(4-(4-chlorophenyl)-5-(1,5-dimethyl-6-oxo-1,6-dihydropyridin-3-yl)-3-methyl-6-oxo-5,6-dihydropyrrolo[3,4-c]pyrazol-1(4H)-yl)azetidine-1-carboxylate], the IC50 at His-Brd2(60-472) came out at 80 nM; at His-Brd3(20-477), 76 nM; in assay [1], 106 nM.

Take `COc1ncccc1-n1nc(C)c2c1C(=O)N(c1cc(Cl)c(=O)n(C)c1)C2c1ccc(Cl)cc1` (stereo not drawn) [Example 72, 5-(5-chloro-1-methyl-6-oxo-1,6-dihydropyridin-3-yl)-4-(4-chlorophenyl)-1-(2-methoxypyridin-3-yl)-3-methyl-4,5-dihydropyrrolo[3,4-c]pyrazol-6(1H)-one]: the results for the IC50 (on His-Brd2(60-472); at His-Brd3(20-477); in assay [1]) were 60 nM, 73 nM and 141 nM, respectively.

In the case of `Cc1nn(C2CC2)c2c1[C@@H](c1ccc(Cl)cc1)N(c1cc(C)c(=O)n(C)c1)C2=O` [Example 49, (R)-4-(4-chlorophenyl)-1-cyclopropyl-5-(1,5-dimethyl-6-oxo-1,6-dihydropyridin-3-yl)-3-methyl-4,5-dihydropyrrolo[3,4-c]pyrazol-6(1H)-one], the figures for the IC50 (at His-Brd2(60-472); on His-Brd3(20-477); in assay [1]) were 15 nM, 19 nM and 34.1 nM, respectively.

Regarding `Cc1nn(C2CC2)c2c1C(c1ccc(C(F)(F)F)cc1)N(c1cc(C)c(=O)n(C)c1)C2=O` (stereo not drawn) [Example 97, 1-cyclopropyl-5-(1,5-dimethyl-6-oxo-1,6-dihydropyridin-3-yl)-3-methyl-4-(4-(trifluoromethyl)phenyl)-4,5-dihydropyrrolo[3,4-c]pyrazol-6(1H)-one], the half-inhibitory concentration (IC50) at His-Brd2(60-472) came out at 88 nM; at His-Brd3(20-477), 120 nM; in assay [1], 145 nM.

For `Cc1cc(N2C(=O)c3nn(C(=O)N(C)C)c(C)c3[C@H]2c2ccc(Cl)cc2)cn2c(C)nnc12` [Example 150, (R)-4-(4-chlorophenyl)-5-(3,8-dimethyl-[1,2,4]triazolo[4,3-a]pyridin-6-yl)-N,N,3-trimethyl-6-oxo-5,6-dihydropyrrolo[3,4-c]pyrazole-2(4H)-carboxamide], the results for the IC50 (on His-Brd2(60-472); on His-Brd3(20-477); in assay [1]) were 140 nM, 120 nM and 27.8 nM, respectively.

Take `CCc1c2c(nn1CCO)C(=O)N(c1cc(C)c3onc(C)c3c1)C2c1ccc(Cl)cc1` (stereo not drawn) [Example 80, 4-(4-chlorophenyl)-5-(3,7-dimethylbenzo[d]isoxazol-5-yl)-3-ethyl-2-(2-hydroxyethyl)-4,5-dihydropyrrolo[3,4-c]pyrazol-6(2H)-one]: the IC50 at His-Brd2(60-472) was found to be 59 nM; at His-Brd3(20-477), 36 nM; in assay [1], 178 nM.

Take `CCc1nn(C2CC2)c2c1[C@H](c1ccc(Cl)cc1)N(c1cc(C)c3nnc(C)n3c1)C2=O` [Example 106, (S)-4-(4-chlorophenyl)-1-cyclopropyl-5-(3,8-dimethyl-[1,2,4]triazolo[4,3-a]pyridin-6-yl)-3-ethyl-4,5-dihydropyrrolo[3,4-c]pyrazol-6(1H)-one]: the IC50 at His-Brd2(60-472) stood at 2900 nM; on His-Brd3(20-477), 4400 nM; in assay [1], 2240 nM.

As for `Cc1cc(N2C(=O)c3nn(C(=O)N(C)C)c(C)c3C2c2ccc(Cl)cc2)cn(C)c1=O` (stereo not drawn) [Example 141, 4-(4-chlorophenyl)-5-(1,5-dimethyl-6-oxo-1,6-dihydropyridin-3-yl)-N,N,3-trimethyl-6-oxo-5,6-dihydropyrrolo[3,4-c]pyrazole-2(4H)-carboxamide], the IC50 is 180 nM on His-Brd2(60-472), 130 nM at His-Brd3(20-477) and 231 nM in assay [1].

`Cc1nn(-c2ccnn2C)c2c1[C@H](c1ccc(Cl)cc1)N(c1cc(C)c3nnc(C)n3c1)C2=O` [Example 124, (S)-4-(4-chlorophenyl)-5-(3,8-dimethyl-[1,2,4]triazolo[4,3-a]pyridin-6-yl)-3-methyl-1-(1-methyl-1H-pyrazol-5-yl)-4,5-dihydropyrrolo[3,4-c]pyrazol-6(1H)-one]: the half-inhibitory concentration (IC50) was 29000 nM at His-Brd2(60-472), 37000 nM on His-Brd3(20-477) and 1730 nM in assay [1].
